Data published in PMC5025758 (Nature Communications, 2016).

Biological target: KasA (Mycobacterium tuberculosis, UniProt P9WQD9)
Format: cell-based

KasA, sequence (P9WQD9 whole entry): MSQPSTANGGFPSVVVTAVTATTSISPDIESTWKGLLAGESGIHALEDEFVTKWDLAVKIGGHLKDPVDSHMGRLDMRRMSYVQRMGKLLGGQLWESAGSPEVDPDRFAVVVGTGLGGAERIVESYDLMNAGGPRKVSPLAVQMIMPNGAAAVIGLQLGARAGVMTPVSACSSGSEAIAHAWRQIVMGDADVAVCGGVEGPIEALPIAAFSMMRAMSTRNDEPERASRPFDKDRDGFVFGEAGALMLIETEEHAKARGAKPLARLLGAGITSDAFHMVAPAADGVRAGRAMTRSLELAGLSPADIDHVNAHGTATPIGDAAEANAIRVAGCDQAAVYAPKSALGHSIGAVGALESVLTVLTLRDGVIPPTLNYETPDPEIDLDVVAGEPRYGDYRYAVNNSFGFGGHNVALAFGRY

With `CCCCS(=O)(=O)Nc1ccc2cnn(CCCN)c2c1` [compound 1, tagged analogue (1)] the “bead-immobilized probe captures KasA from M. bovis BCG extract, competed by free” value was “only three proteins were efficiently competed off the beads by excess GSK3011724A: KasA”.
